According to patent US20040224995A1 (University of North Texas Health Science Center at Fort …, priority 2003, published 2004):

Tests used:
[1] = system: PPARγ; conditions: Kliewer et al., 1995; cited from earlier work
[2] = system: γ-glutamyl-cysteine synthetase (GCS) catalytic and regulatory subunits; test: Western blot of GCS subunits in HT-22 cells; assay type: cell-based, mouse; conditions: compound 24 h before glutamate or H2O2, also independent of glutamate
Procedure: Determining γ-glutamylcysteine synthetase (“GCS”) protein levels was determined using Western blotting analysis, as shown in FIGS. 28 and 29. Antibodies against the heavy (catalytic) and light (regulatory) subunits, GCSH and GCSL, respectively, were ordered from Santa Cruz Biotechnology, Santa Cruz, Calif. Anti-β-actin polyclonal antibody was obtained from Biomedical Technologies Inc. (Stoughton, Mass.). Cyclopentenone PGs treated and untreated HT-22, C6, and RGC-5 cells were homogenized in a buffer containing 20 mM HEPES, pH 7.4, 2 mM […], 1 mM EGTA, […], 2 mm DTE, and […] aprotonin. Cells were sonicated to disrupt cell membranes, and Triton X-100 was added to a final concentration of 0.05% to solubilize membrane bound proteins. Equal amounts of proteins, as determined by the Bradford method, were separated by SDS-PAGE and transferred to polyvinylidene fluoride membrane (Millipore, Bedford, Mass.) in a BiORad (Hercules, Calif.) trans-Blot electrophoresis apparatus at 100 V for 2 hr using Towbin's buffer [25 mm Tris, pH 8.3, 192 mM glycine, and 20% methanol]. […] Equal amounts of proteins, as determined by the Bradford method, were separated by SDS-PAGE and transferred to PVDF membrane. […] […]

[3] = system: RGC-5 cells; test: RGC-5 cell viability during BSO exposure; assay type: cell-based
Procedure: The in vitro model used for oxidative cell death was based upon glutamate, hydrogen peroxide, and buthionine sulfoximine (“BSO”) administration to HT-22 mouse hippocampal, C6 rat glioma, and RGC-5 retinal ganglion cell lines. The ease that the above cell lines are cultured is well known in the art of cell culture. Additionally, these cell lines are suitable for screening a various number of compounds described in the present invention.
Although not wanting to be bound by theory, the toxicity of glutamate in HT-22 (32) and C6 glioma (33) cell lines is mediated through oxidative stress. HT-22 cells lack ionotropic N-methyl-D-aspartate (“NMDA”) glutamate receptors, and the glutamate-induced cell death appears to occur via a slow onset oxidative stress (32,34,35). Glutamate blocks cystine uptake by inhibiting the glutamate/cystine antiporter in both HT-22 (32) and C6 glioma (33) cell lines. […] In some of the experiments, the viability of cells was determined using 2.5 μM calcein AM assay in phosphate-buffered saline (PBS 1×). After 25 minutes of incubation, live cells were distinguished by the presence of intracellular esterase activity, which cleaves the calcein AM dye, producing a bright green fluorescence, as shown in FIG. 22. Viability was measured in Relative Fluorescent Units (“RFU”), and expressed as percentage of vehicle-treated control values. […]

SMILES	EC50 [1] [µM]	expression of catalytic (C) and regulatory (R) subunits of GCS [2]	protection against BSO [3]
CCCCC/C=C/C=C1/C(=O)C=C[C@@H]1C/C=C\CCCC(=O)O [15d-PGJ2, 15-deoxy-Δ^12,14-PGJ2]	7	upregulates	
Cc1c(C)c2c(c(C)c1O)CCC(C)(COc1ccc(CC3SC(=O)NC3=O)cc1)O2 (stereo not drawn) [troglitazone]			protected
